Several values for one entry are separate records, joined by “and”; a condition that tells them apart may be missing. Identical values can stand only once. Like-named read-outs stand apart in the source and are kept apart here.
Tests used:
SR Ca^2+-ATPase [1] = target: T1, SR Ca^2+-ATPase (Oryctolagus cuniculus, UniProt P04191); experiment: Steady-state SR Ca2+-ATPase ATP hydrolysis, coupled pyruvate kinase/lactate dehydrogenase assay; type: biochemical, rabbit; settings: for IC50: SR vesicles from skeletal muscle, 25 °C, 2.5 mM ATP, calcimycin 4% (w/w); for Type of inhibition of Ca^2+-ATPase: Lineweaver-Burk, TeW6 at 100 μM
T1 construct: Isolated sarcoplasmic reticulum vesicles (SRVs), prepared from rabbit skeletal muscles as described elsewhere; from tissue; host or cells: rabbit skeletal muscle, sarcoplasmic reticulum vesicles
Procedure: All reagents used for the preparation of the calcium pump vesicles were purchased from Sigma-Aldrich (Portugal). Isolated sarcoplasmic reticulum vesicles (SRVs), prepared from rabbit skeletal muscles as described elsewhere,[33] were suspended in 0.1 M KCl, 10 mM HEPES (pH 7.0), diluted 1 : 1 with 2.0 M sucrose and frozen in liquid nitrogen for storage at –80 °C. The protein concentration was determined spectrophotometrically at 595 nm in the presence of 0.125% of sodium dodecyl sulphate (SDS) by Bradford method with bovine serum albumin as a standard. The percentage of each protein present in the SRV preparations was determined by densitometry analysis of SDS-PAGE (7.5% acrylamide) protein bands. The SR Ca^2+-ATPase constituted at least 70% of the total protein amount in the SR-vesicles according to SDS-PAGE. The sarcoplasmic reticulum Ca^2+-ATPase-1 (SERCA-1) was the predominant isoform in our SR preparations.[42]
Steady-state assays of the SR Ca^2+-ATPase were measured spectrophotometrically at 25 °C using the coupled enzyme pyruvate kinase/lactate dehydrogenase assay (Scheme 1) as described elsewhere.[42] Briefly, after the addition of the enzymes (pyruvate kinase and lactate dehydrogenase) and the substrate phosphoenolpyruvate to the medium, the experiment was initiated by adding NADH (0.25 mM) and the vesicles containing Ca^2+-ATPase (10 μg mL^–1).
ATP (2.5 mM) was added and the absorbance was recorded for about 1 minute (basal activity). Afterwards, the calcium ionophore calcimycin 4% (w/w), which releases again the Ca^2+ ions, that were pumped in by the ATPase, was added and the decreasing NADH absorbance at 340 nm was measured for about 2 minutes (uncoupled ATPase activity). This was done to increase the ATPase activity (due to the ionophore-mediated impairment of the Ca^2+ gradient) in order to better study the effect of the inhibitors and to ensure that the SR Ca^2+-ATPase vesicles are not leaky. For the experiments including POTs, freshly prepared POT solutions (10 mM and 1 mM for all POTs except for Se2W29 1 mM and 0.1 mM) were added to the medium prior to the addition of SR Ca^2+-ATPase. The ATPase activity and its inhibition was measured taking into account the decrease of the OD (optical density) per minute in the absence (100%) and in the presence of the investigated POTs.[33] The detection system was not affected by the POTs themselves (not even at their highest concentrations), which was confirmed by a rapid decrease in absorbance at 340 nm upon addition of 40 μM ADP after the assay. All experiments were performed at least in triplicates. The inhibitory power of the investigated POTs was evaluated by determining the respective IC50 value, that is, the POT concentration needed to induce a 50% inhibition of the Ca^2+-ATPase enzyme activity.

[2] = system: Na^+/K^+-ATPase from basal membrane of opercular epithelium; experiment: Epithelial short circuit current (Isc) in Ussing chambers ex vivo, POT added basolaterally; type: cell-based, killifish (F. heteroclitus); settings: basolateral; for Maximum inhibition: % of basal Isc
From the text: Epithelial tissues can transport ions and generate a transepithelial voltage termed “active transport potential”, which is caused by the asymmetric distribution of ion channels and transporters on the apical and basolateral membranes. The net movement of charges from the apical to the basolateral side (and vice versa) generates a voltage equal to the voltage differences between the apical and basolateral membranes. Ex vivo, the short circuit current (Isc) is an accurate reflection of the secretory/absorptive capacity of the tissue when short-circuited. In the opercular epithelium of killifish used for our studies, Isc is a direct measure of apical chloride secretion mediated by chloride channels, which relies on an intact basolateral Na^+/K^+-ATPase function.[43],[44]
Methodology for the ex vivo opercular epithelia preparation followed our current methods.[45] Fish were anaesthetized with 2-phenoxyethanol (1 : 2000 v/v), sacrificed by decapitation and the cranium was cut longitudinally. The gills and other tissue remains were removed carefully and the epithelial skin covering the opercular bone were dissected out and transferred to fresh-gassed saline (99.7 : 0.3 O2/CO2) with the following composition (all values in mM): NaCl, 160; MgSO4, 0.93; NaH2PO4, 3.0; CaCl2, 1.5; NaHCO3, 17.85; KCl, 3.0; glucose, 5.5; HEPES (pH 7.8), 5.0. The epithelia were overlaid onto a thin bore polythene net, protected between two parafilm gaskets and pinned over the circular aperture of a tissue holder (P2410, 0.20 cm^2, Physiological Instruments, San Diego, USA), with the perimeter area lightly greased with vacuum silicone to minimize tissue edge damage. The mounted tissue was positioned between the two halves of the Ussing chamber (P2400, Physiological Instruments, San Diego, USA) with 4 mL of gassed saline at 22 °C and gassed with a 99.7 : 0.3 O2/CO2 mix to provide oxygenation, good mixing by gas lift and pH control (pH = 7.8).
The preparations were left to stand for at least 60 min or until a steady basal measurement of bioelectrical variables was achieved. Measurement of the short circuit current (Isc, μA cm^–2) was performed at symmetric conditions under voltage clamp to 0 mV. The open circuit potential (Vt, mV) and Isc were monitored by means of Ag/AgCl electrodes connected to the chambers by 3 mm bore agar bridges (1 M KCl in 3% agar). Clamping of epithelia to 0 mV and recording of Isc was performed by VCC600 voltage clamp amplifiers (Physiologic Instruments, San Diego, USA). Epithelial resistance (Rt, Ω cm^2) was manually calculated (Ohm's law) using the current deflections induced by bilateral 1 mV pulses of 3 s every minute. Bioelectrical data were continuously digitized through a Lab-Trax-4 (WPI, Sarasota, US) onto a Macbook laptop using Labscribe3 Software (Iworks systems, Dover, US). Upon signal baseline stabilization, freshly prepared POT solutions were added to the basal or the apical side of the chamber (Fig. 2) and the effects on the Na^+/K^+-ATPase from basal membrane or the chloride channel forming the apical membrane were followed for 60 to 90 minutes. The maximum inhibitory effect (in %) of the POTs on the ATPase activity and the effective time (ET50), which is the time necessary to reach 50% of the maximum effects (in minutes), was determined by measuring the % decrease of short circuit current (Isc, μA cm^–2) in the absence (100% activity) and presence of the POTs. All the experiments were performed at least in triplicates. Calculations of the ET50 and maximum effect values were performed using GraphPad Prism version 6.00 for Macintosh (GraphPad Software, La Jolla California USA).

SR Ca^2+-ATPase [3] = target: T1, SR Ca^2+-ATPase; parameters: method as in PMID 22178669; settings: cited from earlier work; for IC50: previously reported; for Type of inhibition of Ca^2+-ATPase: regarding the natural ligand MgATP
Na^+/K^+-ATPase = settings: previous studies; cited from earlier work

T1 sequence (P04191 1-994 isoform P04191-2): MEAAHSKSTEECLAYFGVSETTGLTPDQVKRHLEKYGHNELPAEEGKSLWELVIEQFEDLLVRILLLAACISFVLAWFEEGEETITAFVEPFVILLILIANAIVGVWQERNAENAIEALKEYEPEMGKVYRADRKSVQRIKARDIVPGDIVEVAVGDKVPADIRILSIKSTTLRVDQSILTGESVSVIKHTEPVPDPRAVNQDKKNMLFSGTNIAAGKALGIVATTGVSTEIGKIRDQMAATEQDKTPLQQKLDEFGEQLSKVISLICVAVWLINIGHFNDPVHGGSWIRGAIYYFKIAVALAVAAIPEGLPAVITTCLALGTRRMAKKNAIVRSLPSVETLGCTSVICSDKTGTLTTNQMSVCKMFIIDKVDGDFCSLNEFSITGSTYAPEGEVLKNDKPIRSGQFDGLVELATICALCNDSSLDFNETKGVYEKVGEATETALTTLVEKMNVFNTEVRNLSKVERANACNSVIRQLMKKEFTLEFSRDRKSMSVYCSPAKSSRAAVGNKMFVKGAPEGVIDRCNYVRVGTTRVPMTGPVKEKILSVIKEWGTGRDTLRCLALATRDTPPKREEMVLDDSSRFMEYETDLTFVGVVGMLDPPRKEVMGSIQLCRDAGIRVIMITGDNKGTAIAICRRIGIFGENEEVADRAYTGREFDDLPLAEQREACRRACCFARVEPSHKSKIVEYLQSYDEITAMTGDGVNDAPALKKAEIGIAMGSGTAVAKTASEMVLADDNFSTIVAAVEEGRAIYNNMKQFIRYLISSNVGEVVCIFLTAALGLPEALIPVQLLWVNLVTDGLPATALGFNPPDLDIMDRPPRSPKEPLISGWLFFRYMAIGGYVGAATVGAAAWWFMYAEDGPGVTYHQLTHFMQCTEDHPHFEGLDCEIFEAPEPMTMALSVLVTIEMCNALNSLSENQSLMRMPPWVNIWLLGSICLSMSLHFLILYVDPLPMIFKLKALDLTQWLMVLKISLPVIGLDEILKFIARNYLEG

With Na10[A-α-SiW9O34]·16H2O the IC50 (SR Ca^2+-ATPase [1]) was 16 µM and the “Effect on ATPase activity after 30 minutes” value (shortened to “Effect on ATPase activity”) ([2]; 10 μM compound) was “no effect”.
With K6H2[TiW11CoO40]·13H2O [CoW11Ti] the “ET50 (time to reach 50% of the maximum effect)” value ([2]; 10 μM compound) was 10 (10 μM) min and the Maximum inhibition ([2]; 10 μM compound) was 75%.
With K6[α-P2W18O62]·14H2O the “Type of inhibition of Ca^2+-ATPase” value (SR Ca^2+-ATPase [1]) was “mixed type of inhibition”, the “ET50 (time to reach 50% of the maximum effect)” value ([2]; 0.5 μM compound) was 8.2 (0.5 μM) min and the Maximum inhibition ([2]; 0.5 μM compound) was 86%. For the same compound, the “ET50 (time to reach 50% of the maximum effect)” value ([2]; 1 μM compound) was 6.5 (1 μM) min, the Maximum inhibition ([2]; 1 μM compound, 1 µM) was 99% and the “ET50 (time to reach 50% of the maximum effect)” value ([2]; 10 μM compound) was 4.3 (10 μM) min. It also gave a Maximum inhibition ([2]; 10 μM compound) of about 100%.
For `C[C@@H]1O[C@@H](O[C@H]2C[C@@H](O)[C@]3(CO)[C@H]4[C@H](O)C[C@]5(C)[C@@H](C6=CC(=O)OC6)CC[C@]5(O)[C@@H]4CC[C@]3(O)C2)[C@H](O)[C@H](O)[C@H]1O` [Ouabain, reference compound], the “ET50 (time to reach 50% of the maximum effect)” value ([2]; 10 μM compound) was 3.2 ± 0.2 min and 3.2 min and 3.2 (10 μM) min and the Maximum inhibition ([2]; 10 μM compound) was 100%.
For K14[As2W19O67(H2O)]·23H2O, the IC50 (SR Ca^2+-ATPase [1]) was 28 µM and the “Effect on ATPase activity” value ([2]; 10 μM compound) was “no effect”.
With Na9[B-α-AsW9O33]·27H2O the IC50 (SR Ca^2+-ATPase [1]) was 20 µM, the “ET50 (time to reach 50% of the maximum effect)” value ([2]; 10 μM compound) was 8.5 min and 8.5 (10 μM) min and the Maximum inhibition ([2]; 10 μM compound) was 66%.
In the case of K12[α-H2P2W12O48]·16H2O, the IC50 (SR Ca^2+-ATPase [1]) is reported as 11 µM and the “Effect on ATPase activity” value ([2]; 10 μM compound) is reported as “no effect”.
In the case of `[O]=[V]([O-])([O-])[O][V]1(=[O])[O][V]2(=[O])[O][V](=[O])([O][V](=[O])([O-])[O-])[O][V](=[O])([O]2)[O][V]2(=[O])[O][V](=[O])([O][V](=[O])([O-])[O-])[O][V](=[O])([O]1)[O]2` (stereo not shown) [V10, decavanadate], the IC50 (SR Ca^2+-ATPase [3]) is listed as 15 µM and the “Type of inhibition of Ca^2+-ATPase” value (SR Ca^2+-ATPase [3]) is listed as “non-competitive”.
For Na12[H4W22O74]·50H2O, the IC50 (SR Ca^2+-ATPase [1]) was 68 µM and the “Effect on ATPase activity” value ([2]; 10 μM compound) was “no effect”.
With Na6[TeW6O24]·22H2O the “Type of inhibition of Ca^2+-ATPase” value (SR Ca^2+-ATPase [1]) was “mixed type of inhibition”, the IC50 (SR Ca^2+-ATPase [1]) was 200 µM and the “ET50 (time to reach 50% of the maximum effect)” value ([2]; 10 μM compound) was 60 (10 μM) min. For the same compound, the Maximum inhibition ([2]; 10 μM compound) was 10%.
For `[O]=[W](=[O])([OH])[OH]` [orthotungstate], the IC50 (Na^+/K^+-ATPase) is given as 1500 µM and the IC50 (SR Ca^2+-ATPase [3]) is given as 400 µM.
For K9(C2H8N)5[H10Se2W29O103]·30H2O, the “ET50 (time to reach 50% of the maximum effect)” value ([2]; 1 μM compound) was 6.5 (1 μM) min and the Maximum inhibition ([2]; 1 μM compound) was 14%.
For decaniobate [Nb10], the IC50 (SR Ca^2+-ATPase [3]) is given as 35 µM and the “Type of inhibition of Ca^2+-ATPase” value (SR Ca^2+-ATPase [3]) is given as “non-competitive”.

From publication PMC5824666, “The P-type ATPase inhibiting potential of polyoxotungstates” (Metallomics, 2018)
